Each structure is given as a SMILES string. pEC50: −log10 of the molar value. Entries after “also recorded” stand apart in the source; their conditions may differ. Like-named read-outs stand apart in the source and are kept apart here.

Assay [1] relates to frataxin deficient fibroblasts (Friedreich's ataxia patient, GM03665). The assay is classed as cell-based.
Assay [2] has as its system HepG2 human hepatocarcinoma cells. The experiment in a line: Rotenone ATP Assay (Complex I by-pass). The class given is cell-based. As to conditions: summary statements also cover the Oxygraph assay. Here is the method:
This assay has been adapted from Haefeli R H, Erb M, Gemperli A C, Robay D, Courdier Fruh I, et al. (2011) NQO1-Dependent Redox Cycling of Idebenone: Effects on Cellular Redox Potential and Energy Levels. PLOS ONE 6 (3): e17963. HepG2 human hepatocarcinoma cells were co-incubated with the electron transport chain Complex I toxin rotenone+/−compounds of interest and the corresponding effect on ATP synthesis was measured with a bioluminescent substrate.
In brief, HepG2 cells were plated at 25,000 cells per well in low glucose (1 gram/Liter) DMEM medium+10% fetal calf serum and incubated for 24 hours. The following day, the media was decanted and subsequently replaced with glucose free/serum free DMEM which has been supplemented with 50 micromolar rotenone and compound of interest. Serial dilutions of compound were prepared in 3× dilutions beginning at 25 micromolar. The cells were incubated for 60 minutes in a humidified tissue culture incubator. Following incubation, ATP levels were quantified via bioluminescent assay (Promega […] Glo Assay kit) and readings were captured on a standard microplate reader.
ATP bioluminescence is plotted versus the log of compound of interest and data were used to generate EC50 values. Curve fitting was performed using a sigmoidal dose response curve fit function (GraphPad Prism software).
Robustness of curve fit was assessed as a quality control measure, with an R squared value of at least 0.80 being required for a successful curve fit. Compounds of interest showing an increase in ATP bioluminescence relative to vehicle control were verified in an independent biological replicate of n=3 technical replicates per dose.
This assay is a direct measure of the ability of compounds of interest to restore ATP production under conditions of inhibition of Complex I of the mitochondrial electron transport chain. As the majority of ATP produced via the electron transport chain is thought to derive from Complex I activity, significant impairment in Complex I function has dire biological consequences. Of note, Complex I mutations are thought to drive pathophysiology in multiple mitochondrial diseases, including Leigh syndrome and Leber's Hereditary Optic Neuropathy (LHON), while diminished Complex I activity and the resultant attenuation of ATP production has been shown in neurodegenerative diseases, including Friedreich's Ataxia, Parkinson's Disease and Huntington's Disease.

Assay [3] concerns the target lipoxygenase-15 enzyme (Glycine max (Soybean) (Glycine hispida), UniProt P08170). Briefly: Lipoxygenase-15 Assay (LO-15 Assay). The class given is biochemical. As to conditions: reduced forms tested.
For assay [4], the system named is GM03665 cells (fibroblasts from a subject with Friedreich's ataxia). Briefly: RSL3 Toxicity Assay (RSL3 Assay). The class given is cell-based, human. How it is done: In brief, GM03665 cells (Coriell Institute) were seeded in 96-well plates (Sarstedt) in DMEM cell culture media containing 10% Fetal Bovine serum and 1% Penicillin-Streptomycin (Pen-Strep) antibiotic mix at the amount of 2×10^4/mL (100 μL or 2×10^3 cells per well). Cells were left to rest overnight at 37° C. in a humidified atmosphere with 5% CO2 to allow attachment of the cells to the culture plate. Test compounds were prepared as DMSO stocks (10 mM) and were serially diluted in cell culture media to obtain 2× working solutions. Cell media was discarded and replaced by 50 μL of test compound solutions or cell media with vehicle for control wells. Within 15 minutes, 2× working solution (4 μM) of 1S,3R-RSL3 (CAS #1219810-16-8, Sigma-Aldrich) (diluted from 5 mM DMSO stock in cell culture media) was added. Final reaction volume was 100 μL and final DMSO concentration in reaction was kept below 0.2% (v/v) and equal in all wells. Final RSL3 concentration was 2 μM and test compound final concentrations in reaction were up to 1000 nM. After 24 hours of incubation cell viability was assessed by MTT test. MTT (Sigma-Aldrich) solution 1 mg/mL in 1×PBS (pH=7,4) was prepared 1 hour before the assay and filtered through Filtropur S 0.2 filters (Sarstedt). Cell media with test compounds was discarded and 100 μL of MTT solution was added to cells. The plates were incubated for 2 hours at +37° C. Thereafter, the MTT solution was removed and 100 μL of isopropanol was added to dissolve sediment. Absorption at 570 and 650 nm was measured using Hidex Sense microplate reader.

Assay [5] has as its system intact HepG2 cells. Briefly: Rotenone Oxygraph Assay (high-resolution respirometry). The assay is classed as cell-based, human. To be noted: 1 μM rotenone, 10 μM compound. How it is done:
The Oxygraph-2k (O2k, OROBOROS INSTRUMENTS, Austria) was used for measurements of respiration of intact cells. The respirometry was performed in Dulbecco's Modified Eagle Medium (DMEM) high glucose without supplements. All experiments were performed at 37° C.
HepG2 cells (ATCC collection code HB-8065™) were cultured in 10 cm^2 culture dishes in DMEM high glucose medium supplemented with 10% fetal bovine serum (FBS) and 100 units/mL penicillin and 100 μg/mL streptomycin until approximately 90% confluence was reached. Immediately prior to performing the respirometric assay, the cells were washed with media without FBS, trypsinized and resuspended in DMEM high glucose without FBS.
The final concentration of intact cells in the O2k-chamber was 0.5.10^6/mL. After stabilization of respiration, the Complex I inhibitor, rotenone, at 1 μM final concentration was added to inhibit electron flux via Complex I. Then, compound to be tested was added at 10 μM final concentration, and the change in respiration rate of intact cells was monitored.

The test system of assay [6] is Nrf-2 responsive genes. Briefly: Nrf-2 Activation Assay (Nrf-2 Assay). The class given is cell-based, human. To be noted: 24 hours; for activation of Nrf-2 responsive genes / pathway, in words: FIG. 7, 1 μM. How it is done:
This assay was developed internally and was designed to determine if the novel test compounds disclosed herein active Nrf-2 and thereby promote resolution of inflammation by the mechanism believed to be responsible for the activity of omaveloxolone.
Briefly, GM03665 Eriedreich Ataxia patient fibroblasts were grown in 12 Well Plates (TC Cell+F) (Sarstedt, Nümbrecht Germany), at a density of 12×10^4 cells/per well in DMEM/F12 (Gibco, ThermoFisher Scientific, Waltham, MA, USA) cell media supplemented with 10% FBS and 1% Pen/Strep. Cells were left to rest overnight at 37° C. in a humidified atmosphere with 5% CO2 to allow attachment of the cells to the culture plate. Before continuing assay visual inspection of each well was done by light microscopy to detect any possible bacterial and fungal contamination. […] After incubation, cell media was removed and total RNA from the cells was isolated using E.Z.N.A.® Total RNA Kit I (Omega Bio-tek, Norcross, Georgia, USA) spin columns, and first-strand cDNA synthesis was carried out using a High Capacity cDNA Reverse Transcription Kit (Applied Biosystems™, Foster City, CA) following the manufacturer's instructions. qPCR analysis of gene expression was performed by mixing SYBR® Green Master Mix (Applied Biosystems™) with synthesized cDNA and forward and reverse primers. […] (60 cycles), and 95° C. for 60 seconds, followed by melt curve analysis at 72-95° C., 0.3° C./sec. The relative expression levels for each gene were calculated with the ΔΔCt method and normalized to the expression of REEP5 and SNRPD3 genes.

Regarding `CC1=C(C)C(=O)C(CC[C@@](C)(O)COCCC[Si](C)(C)C)=C(C)C1=O` [Compound M, (R)-2-(3-hydroxy-3-methyl-4-(3-(trimethylsilyl)propoxy)butyl)-3,5,6-trimethylcyclohexa-2,5-diene-1,4-dione], the “protection from BSO induced cell death / ferroptosis, in words” value in assay [1] is “able to prevent ferroptotic cell death; also recorded: active”. Besides, the “Complex I by-pass activity / restoring ATP production, in words” value in assay [2] is “active”. In addition, in assay [3], the “lipoxygenase-15 inhibition, in words” value was “best result; also recorded: effective inhibitors”. For the same molecule, the “activity in the RSL3 Assay, in words” value in assay [4] is “active; also recorded: able to prevent ferroptotic cell death”. Moreover, in assay [4] (Homo sapiens, Fibroblast, 2 μM RSL3, 24 hours, MTT, mean of at least three measurements, unit from Table 7, read-out: Mean EC50, RSL3 Assay (Table 3)), the pEC50 (usually the negative decadic logarithm of the EC50, by convention in mol/L) was 7.39. The EC50 (as a rule, the concentration needed to bring the measured effect to its halfway point) in assay [4] (Homo sapiens, Fibroblast, 2 μM RSL3, 24 hours, MTT, read-out: RSL3 Assay EC50, nM (Table 7)) came to 41.2 nM. In assay [5], the “Rotenone Oxygraph Assay % Increase (Table 7)” value was 56.6 +/− 11.3%. Further, in assay [6] (1 μM compound, qPCR of Nrf-2 responsive genes), the “Nrf-2 Assay (Table 7)” value is “Inactive”. Also, the “activation of Nrf-2 responsive genes / pathway, in words” value in assay [6] is on record as “do not activate”.
`CC1=C(C)C(=O)C(CC[C@](C)(O)CCCCCCCCC(F)(F)F)=C(C)C1=O` [Compound N, (R)-2,3,5-trimethyl-6-(12,12,12-trifluoro-3-hydroxy-3-methyldodecyl)cyclo-hexa-2,5-diene-1,4-dione]: the “protection from BSO induced cell death / ferroptosis, in words” value in assay [1] is “possess both activities; also recorded: able to prevent ferroptotic cell death; also recorded: active”. Further, in assay [2], the “Complex I by-pass activity / restoring ATP production, in words” value was “possess both activities”. Moreover, in assay [3], the “lipoxygenase-15 inhibition, in words” value is listed as “effective inhibitors”. Also, in assay [4], the “activity in the RSL3 Assay, in words” value is “active; also recorded: able to prevent ferroptotic cell death”. Also, the “Rotenone Oxygraph Assay % Increase (Table 7)” value in assay [5] is 44.8 +/− 10.3%. The “activation of Nrf-2 responsive genes / pathway, in words” value in assay [6] was “do not activate”.

(Values after patent US20240400529A1, “COMPOSITIONS AND METHODS FOR THE PREVENTION AND/OR TREATMENT OF MITOCHONDRIAL DISEASE, INCLUDING FRIEDREICH'S ATAXIA” (Stealth BioTherapeutics Inc., priority 2019, published 2024).)
